Results from US20210169953A1, “COMPOSITION FOR TYPE IV ALLERGY” (SONE FARM CO., LTD, priority 2018, published 2021).
“And” between values parts separate entries of the source, which are not always exact repeats. Equal values may be shown once.

System: picryl chloride-induced mouse contact dermatitis model
Test: Suppression action on mouse contact dermatitis model by application on the auricle (auricle thickness)
Assay type: in vivo, mouse (male BALB/cA Jcl)
Protocol: From the supernatant of a culture broth obtained by cultivating the strain IJH-SONE68 in modified-SDM medium, exopolysaccharides produced by the strain were purified by the method disclosed in Example 2 to be supplied to experiments (1 mg/mL). The same concentration was used for a dipotassium glycyrrhizinate aqueous solution used as a control of an existing anti-inflammatory drug.
The mice used were male BALB/cA Jcl mice (7-week old at the time of arrival, CLEA Japan, Inc.). Five mice were housed in a breeding cage and bred in an animal breeding room in which environment was adjusted to temperature of 20 to 26° C., humidity of 40 to 60%, and lighting time of 12 hours (8:00 to 20:00). The mice were allowed to freely ingest solid feed MF (Oriental Yeast Co., Ltd.). In addition, with regard to a drinking water, the mice were allowed to freely ingest a purified water.
After carried in the cage, the mice were acclimated for 7 days. […]
On Day 6, the thickness of right auricle of the mice was measured in advance with a caliper, and then an allergic reaction was induced by applying 20 μL of a 1 w/v % picryl chloride solution on the front and back of the right auricle. […] Eighteen hours later (Day 7), the thickness of the auricle was measured, and the difference before and after the induction (A auricle thickness [mm]) was compared among the groups. […] Tukey's test or t test by Welch's method was used for a significant difference test among the groups, and it was determined that there was a significant difference when a risk factor (p value) was less than 0.05.

CC1(C)[C@@H](O[C@H]2O[C@H](C(=O)[O-])[C@@H](O)[C@H](O)[C@H]2O[C@@H]2O[C@H](C(=O)[O-])[C@@H](O)[C@H](O)[C@H]2O)CC[C@]2(C)[C@H]3C(=O)C=C4[C@@H]5C[C@@](C)(C(=O)O)CC[C@]5(C)CC[C@@]4(C)[C@]3(C)CC[C@@H]12.[K+].[K+] [dipotassium glycyrrhizinate]
Increase in auricle thickness due to inflammation vs control group (FIG. 7, Tukey test) (application, p<0.1): tended to be suppressed
Increased amount of auricle thickness, Average (group average, 20 μL of 1 mg/mL sample applied on right auricle 2 h after induction, measured 18 h later, control 0.28): 0.184 mm
Increased amount of auricle thickness, each mouse (individual mice, 20 μL of 1 mg/mL sample applied on right auricle 2 h after induction, measured 18 h later): 0.20 mm and 0.06 mm and 0.22 mm (3×)
